Results taken from patent US8153807B2, “Inhibitors of 11-beta-hydroxysteroid dehydrogenase 1” (Eli Lilly and Company, priority 2006, dated 2012).

How the values were obtained:
11-β-HSD1 = biological target: T1, 11-β-HSD1 (Homo sapiens, UniProt P28845); experiment: Human aortic smooth muscle cell assay; type: cell-based; settings: primary human AoSMC, hTNFα-induced 11-β-HSD1, cortisol immunoassay
T1 construct: assay medium containing 12 ng/mL hTNFα to induce expression of 11-β-HSD1; endogenous in cells; host or cells: primary human aortic smooth muscle cells (AoSMC), induced with hTNFα
T1 sequence (P28845 whole entry): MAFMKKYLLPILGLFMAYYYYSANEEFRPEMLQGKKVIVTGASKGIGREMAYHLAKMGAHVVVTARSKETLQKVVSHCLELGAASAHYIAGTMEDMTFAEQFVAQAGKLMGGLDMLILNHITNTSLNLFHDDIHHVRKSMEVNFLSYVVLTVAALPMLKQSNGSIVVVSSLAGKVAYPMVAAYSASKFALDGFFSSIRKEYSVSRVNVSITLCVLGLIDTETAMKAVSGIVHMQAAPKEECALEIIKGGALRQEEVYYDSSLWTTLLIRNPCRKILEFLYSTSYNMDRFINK
Experimental: Human Aortic Smooth Muscle Cell Assay
Primary human aortic smooth muscle cells (AoSMC) are cultured in 5% FBS growth medium to a passage number of 6, then pelleted by centrifugation and resuspended at a density of 9×10^4 cells/mL in 0.5% FBS assay medium containing 12 ng/mL hTNFα to induce expression of 11-β-HSD1. Cells are seeded into 96-well tissue culture assay plates at 100 μL/well (9×10^3 cells/well) and incubated for 48 hours at 37° C., 5% CO2. Following induction, cells are incubated for 4 hours at 37° C., 5% CO2 in assay medium containing test compounds then treated with 10 μL/well of 10 μM cortisone solubilized in assay medium, and incubated for 16 hours at 37° C., 5% CO2. Medium from each well is transferred to a plate for subsequent analysis of cortisol using a competitive fluorescence resonance time resolved immunoassay. In solution, an allophycocyanin (APC)-cortisol conjugate and free cortisol analyte compete for binding to a mouse anti-cortisol antibody/Europium (Eu)-anti mouse IgG complex. Higher levels of free cortisol result in diminishing energy transfer from the Europium-IgG to the APC-cortisol complex resulting in less APC fluorescence. Fluorescent intensities for Europium and APC are measured using a LJL Analyst AD. Europium and APC excitation is measured using 360 nm excitation and 615 nm and 650 nm emission filters respectively. Time resolved parameters for Europuium were 1000 μs integration time with a 200 μs delay. APC parameters are set at 150 μs integration time with a 50 μs delay. Fluorescent intensities measured for APC are modified by dividing by the Eu fluorescence (APC/Eu). This ratio is then used to determine the unknown cortisol concentration by interpolation using a cortisol standard curve fitted with a 4-parameter logistic equation. These concentrations are then used to determine compound activity by plotting concentration versus % inhibition, fitting with a 4-parameter curve and reporting the IC50.

cortisone conversion = experiment: Acute in vivo cortisone conversion assay; settings: Mus musculus; male C57BL/6 mice, oral dose 10 mg/kg, cortisone challenge 16 hours post dose, serum cortisol; read-out: % Inhibition after 16 hours (dose of 10 (mg/kg))
Experimental: Acute In Vivo Cortisone Conversion Assay
In general, compounds are dosed orally into mice, the mice are challenged with a subcutaneous injection of cortisone at a set timepoint after compound injection, and the blood of each animal is collected some time later. Separated serum is then isolated and analyzed for levels of cortisone and cortisol by LC-MS/MS, followed by calculation of mean cortisol and percent inhibition of each dosing group. Specifically, male C57BL/6 mice are obtained from Harlan Sprague Dawley at average weight of 25 grams. Exact weights are taken upon arrival and the mice randomized into groups of similar weights. Compounds are prepared in 1% w-w HEC, 0.25% w-w polysorbate 80, 0.05% w-w Dow Corning antifoam #1510-US at various doses based on assumed average weight of 25 grams. Compounds are dosed orally, 200 μl per animal, followed by a subcutaneous dose, 200 μl per animal, of 30 mg/kg cortisone at 1 to 24 hours post compound dose. At 10 minutes post cortisone challenge, each animal is euthanized for 1 minute in a CO2 chamber, followed by blood collection via cardiac puncture into serum separator tubes. Once fully clotted, tubes are spun at 2500×g, 4° C. for 15 minutes, the serum transferred to wells of 96-well plates (Corning Inc, Costar #4410, cluster tubes, 1.2 ml, polypropylene), and the plates are frozen at −20° C. until analysis by LC-MS/MS. For analysis, serum samples are thawed and the proteins are precipitated by the addition of acetonitrile containing d4-cortisol internal standard. Samples are vortex mixed and centrifuged. The supernatant is removed and dried under a stream of warm nitrogen. Extracts are reconstituted in methanol/water (1:1) and injected onto the LC-MS/MS system. The levels of cortisone and cortisol are assayed by selective reaction monitoring mode following positive ACPI ionization on a triple quadrupole mass spectrophotometer.

11-βHSD2 enzyme = biological target: T2, 11-βHSD2 enzyme (Homo sapiens, UniProt P80365); experiment: Selectivity against 11-βHSD2 in an enzyme assay similar to the 11β-HSD type 1 enzyme assay; type: biochemical; settings: 11-βHSD1 versus 11-βHSD2 enzyme
T2 sequence (P80365 1-405): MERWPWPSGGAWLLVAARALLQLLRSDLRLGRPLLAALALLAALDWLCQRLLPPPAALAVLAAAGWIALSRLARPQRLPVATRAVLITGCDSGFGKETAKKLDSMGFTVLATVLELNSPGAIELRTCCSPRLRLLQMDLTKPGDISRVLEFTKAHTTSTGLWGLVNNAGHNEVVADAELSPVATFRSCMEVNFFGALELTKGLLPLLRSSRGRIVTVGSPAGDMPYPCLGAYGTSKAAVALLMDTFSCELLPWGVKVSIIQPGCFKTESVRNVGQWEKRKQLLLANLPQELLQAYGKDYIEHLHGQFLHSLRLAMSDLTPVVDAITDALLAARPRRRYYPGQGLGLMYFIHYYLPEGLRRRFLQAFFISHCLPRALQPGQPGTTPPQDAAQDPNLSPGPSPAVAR
Experimental: 11β-HSD Type 1 Enzyme Assay
Human 11β-HSD type 1 activity is measured by assaying NADPH production by fluorescence assay. Solid compounds are dissolved in DMSO to a concentration of 10 mM. Twenty microliters of each are then transferred to a column of a 96-well polypropylene Nunc plate where they are further diluted 50-fold followed by subsequent two-fold titration, ten times across the plate with additional DMSO using a Tecan Genesis 200 automated system. Plates are then transferred to a Tecan Freedom 200 system with an attached Tecan Temo 96-well head and an Ultra 384 plate reader. Reagents are supplied in 96-well polypropylene Nunc plates and are dispensed individually into black 96-well Molecular Devices High Efficiency assay plates (40 μL/well capacity) in the following fashion: 9 μL/well of substrate (2.22 mM NADP, 55.5 μM Cortisol, 10 mM Tris, 0.25% Prionex, 0.1% Triton X100), 3 μL/well of water to compound wells or 3 μL to control and standard wells, 6 μL/well recombinant human 11β-HSD type 1 enzyme, 2 μL/well of compound dilutions. […] Plates are then shaken once more for 15 seconds then placed into an Ultra 384 microplate reader (355EX/460EM) for detection of NADPH fluorescence. […]

IC50 (11-β-HSD1) [nM] | fold greater inhibition of 11-βHSD1 enzyme as compared to the inhibition of 11-βHSD2 (11-βHSD2 enzyme) [fold] | Structure (SMILES) | inhibition at 10 mg/kg (cortisone conversion) [%]
67 | – | O=C(c1ccc(-c2cc(Cl)c(C[C@@H]3CCN(N4CCOCC4)C3=O)c(Cl)c2)cc1)N1CCC(C(F)(F)F)CC1 [Example 3, (R)-3-[3,5-Dichloro-4′-(4-trifluoromethyl-piperidine-1-carbonyl)-biphenyl-4-ylmethyl]-1-morpholin-4-yl-pyrrolidin-2-one] | 82
5.7 | – | O=C1[C@H](Cc2c(Cl)cc(-c3ccc(F)cc3)cc2Cl)CCN1N1CCC(O)CC1 [Example 6, (R)-3-(3,5-Dichloro-4′-fluoro-biphenyl-4-ylmethyl)-1-(4-hydroxy-piperidin-1-yl)-pyrrolidin-2-one Trifluoro Acetate] | 55
14.3 | 145 | O=C(c1ccc(-c2cc(Cl)c(C[C@@H]3CCN(N4CCC(O)CC4)C3=O)c(Cl)c2)cc1)N1CCC(C(F)(F)F)CC1 [Example 7, (R)-3-[3,5-Dichloro-4′-(4-trifluoromethyl-piperidine-1-carbonyl)-biphenyl-4-ylmethyl]-1-(4-hydroxy-piperidin-1-yl)-pyrrolidin-2-one] | 98
43 | – | O=C(c1ccc(-c2cc(Cl)c(C[C@@H]3CCN(N4CCC(O)CC4)C3=O)c(Cl)c2)cc1)N1CCC(F)(F)CC1 [Example 8, (R)-3-[3,5-Dichloro-4′-(4,4-difluoro-piperidine-1-carbonyl)-biphenyl-4-ylmethyl]-1-(4-hydroxy-piperidin-1-yl)-pyrrolidin-2-one] | 94
